Conditions: 75 mg/kg/day i.n.

Structure (SMILES): NC(=O)c1ncn([C@@H]2O[C@H](CO)[C@@H](O)[C@H]2O)n1 [Ribavirin]
- Tox Controls Surv/Total (bid x 5, uninfected mice): 3/3
- Tox Controls Mean Host Weight Change (initial weight vs weight 18 h after final treatment): -1.7 g
